≈ marks a conversion by molar mass, not a printed value. Where two headings read alike, the source gives them in different places.
Legend:
[1] = test system: Gram positive bacteria, including staphylococci and streptococci; test: In vitro antibacterial activity, summary statement; assay type: cell-based
[2] = test system: Staphylococcus aureus Met-S ATCC6538P; details: ATCC6538
[3] = test system: Staphylococcus aureus Met-R
[4] = test system: Streptococcus pyogenes
[5] = test system: Streptococcus pneumoniae
[6] = test system: Enterococcus faecium VanS
[7] = test system: Enterococcus faecium VanA
[8] = test system: Enterococcus faecalis VanS
[9] = test system: Enterococcus faecalis VanA
[10] = test system: Moraxella catharralis
[11] = test system: Escherichia coli
[12] = test system: Candida albicans ATCC 90028; details: ATCC 90028, 48 h
[13] = test system: Clostridium difficile
[14] = test system: Clostridium butyricum; details: 48 h
[15] = test system: Clostridium butyricum and Clostridium perfrigens
[16] = test system: Peptstreptococcus asaccharolyticus; details: 48 h
[17] = test system: Bacteroides fragilis ATCC 25285; details: ATCC 25285, 48 h
[18] = test system: Clostridium perfrigens
[19] = test system: Peptstreptococcus asaccharolyticus; test: organism not typed; details: 48 h, read-out: Minimal Inhibitory Concentration
[20] = test system: Staphylococcus aureus Met-S ATCC6538P; test: microbe, parasite or virus in culture
[21] = test system: Staphylococcus aureus Met-S ATCC19636; test: microbe, parasite or virus in culture
[22] = test system: Staphylococcus aureus Met-R; test: microbe, parasite or virus in culture; details: read-out: Minimal Inhibitory Concentration
[23] = test system: Streptococcus pyogenes; test: microbe, parasite or virus in culture; details: read-out: Minimal Inhibitory Concentration
[24] = test system: Streptococcus pneumoniae; test: microbe, parasite or virus in culture; details: read-out: Minimal Inhibitory Concentration
[25] = test system: Enterococcus faecium VanS; test: microbe, parasite or virus in culture
[26] = test system: Enterococcus faecium VanA; test: microbe, parasite or virus in culture; details: read-out: Minimal Inhibitory Concentration
[27] = test system: Enterococcus faecalis VanS; test: microbe, parasite or virus in culture
[28] = test system: Enterococcus faecalis VanA; test: microbe, parasite or virus in culture; details: read-out: Minimal Inhibitory Concentration
[29] = test system: Moraxella catharralis; test: microbe, parasite or virus in culture; details: read-out: Minimal Inhibitory Concentration
[30] = test system: Escherichia coli; test: microbe, parasite or virus in culture; details: read-out: Minimal Inhibitory Concentration
[31] = test system: Candida albicans ATCC 90028; test: microbe, parasite or virus in culture; details: ATCC90028, 48 h, read-out: Minimal Inhibitory Concentration
[32] = test system: Clostridium difficile; test: microbe, parasite or virus in culture; details: Clostridioides difficile, 48 h
[33] = test system: Clostridium butyricum; test: microbe, parasite or virus in culture; details: 48 h, read-out: Minimal Inhibitory Concentration
[34] = test system: Clostridium perfrigens; test: microbe, parasite or virus in culture; details: 48 h, read-out: Minimal Inhibitory Concentration
[35] = test system: Bacteroides fragilis ATCC 25285; test: microbe, parasite or virus in culture; details: ATCC25285, 48 h, read-out: Minimal Inhibitory Concentration
[36] = range over codes 4013, 1365, 4015

## CC[C@H](C)[C@@H]1NC(=O)C2NC(=O)[C@H](CC(C)C)NC(=O)C(NC(=O)C3CSCC(NC(=O)[C@H](C)N)C(=O)N[C@@H](CO)C(=O)NCC(=O)N[C@@H](Cc4c[nH]c5ccccc45)C(=O)N[C@@H](C(C)C)C(=O)N3)C(C)SCC(NC(=O)[C@H](CCC(=O)O)NC1=O)C(=O)NCC(=O)NC1C(=O)N[C@@H](C(C)C)C(=O)N[C@@H]([C@@H](C)CC)C(=O)NC(CSC2C)C(=O)N[C@@H](C)C(=O)NC(C(=O)N[C@@H](CCCNC(=N)N)C(=O)NCCN)C[S+]([O-])C1C (some centres unmarked) [NAI-802 monoamide with ethylendiamine]
[1]; against certain organisms
  antibacterial activity compared to native NAI-802: more antibacterial active
[2]
  Minimal Inhibitory Concentration: 4 mg/L
[3]
  Minimal Inhibitory Concentration: 8 mg/L
[4]; code 49, Todd Hewitt broth
  Minimal Inhibitory Concentration: ≦0.125 mg/L
[5]
  Minimal Inhibitory Concentration: 2 mg/L
[6]
  Minimal Inhibitory Concentration: 32 mg/L
[7]
  Minimal Inhibitory Concentration: 16 mg/L
[8]
  Minimal Inhibitory Concentration: 32 mg/L
[9]
  Minimal Inhibitory Concentration: 32 mg/L
[10]
  Minimal Inhibitory Concentration: 32 mg/L
[11]
  Minimal Inhibitory Concentration: >128 mg/L
[12]
  Minimal Inhibitory Concentration: >128 mg/L
[13]; code 4013, anaerobic, 48 hours
  Minimal Inhibitory Concentration: ≦0.125 mg/L
[13]; [36]
  Minimal Inhibitory Concentration, range: ≦0.125-1 mg/L
[14]
  Minimal Inhibitory Concentration: 1 mg/L
[15]
  Minimal Inhibitory Concentration, range: 1 to 8 mg/L
[16]
  Minimal Inhibitory Concentration: 0.5 mg/L
[17]
  Minimal Inhibitory Concentration: >128 mg/L

## CC[C@H](C)[C@@H]1NC(=O)C2NC(=O)[C@H](CC(C)C)NC(=O)C(NC(=O)C3CSCC(NC(=O)[C@H](C)N)C(=O)N[C@@H](CO)C(=O)NCC(=O)N[C@@H](Cc4c[nH]c5ccccc45)C(=O)N[C@@H](C(C)C)C(=O)N3)C(C)SCC(NC(=O)[C@H](CCC(=O)O)NC1=O)C(=O)NCC(=O)NC1C(=O)N[C@@H](C(C)C)C(=O)N[C@@H]([C@@H](C)CC)C(=O)NC(CSC2C)C(=O)N[C@@H](C)C(=O)NC(C(=O)N[C@@H](CCCNC(=N)N)C(=O)O)C[S+]([O-])C1C (some centres unmarked) [NAI-802]
[1]; including staphylococci and streptococci
  antibacterial activity against Gram positive bacteria: antibacterial activity against Gram positive bacteria
[3]
  Minimal Inhibitory Concentration: 32 mg/L
[4]
  Minimal Inhibitory Concentration: 0.5 mg/L
[5]
  Minimal Inhibitory Concentration: 8 mg/L
[6]
  Minimal Inhibitory Concentration: >128 mg/L
[7]
  Minimal Inhibitory Concentration: 128 mg/L
[8]
  Minimal Inhibitory Concentration: 128 mg/L
[9]
  Minimal Inhibitory Concentration: 128 mg/L
[10]
  Minimal Inhibitory Concentration: 64 mg/L
[11]
  Minimal Inhibitory Concentration: >128 mg/L
[12]
  Minimal Inhibitory Concentration: >128 mg/L
[13]
  Minimal Inhibitory Concentration, range: 0.25 to 2 mg/L
[14]
  Minimal Inhibitory Concentration: 0.25 mg/L
[18]; 48 h
  Minimal Inhibitory Concentration: 2 mg/L
[15]
  Minimal Inhibitory Concentration, range: 0.25 to 2 mg/L
[16]
  Minimal Inhibitory Concentration: 1 mg/L
[17]
  Minimal Inhibitory Concentration: >128 mg/L

## CN[C@H](CC(C)C)C(=O)N[C@H]1C(=O)N[C@@H](CC(N)=O)C(=O)N[C@H]2C(=O)N[C@H]3C(=O)N[C@H](C(=O)N[C@H](C(=O)O)c4cc(O)cc(O)c4-c4cc3ccc4O)[C@H](O)c3ccc(c(Cl)c3)Oc3cc2cc(c3O[C@@H]2O[C@H](CO)[C@@H](O)[C@H](O)[C@H]2O[C@H]2C[C@](C)(N)[C@H](O)[C@H](C)O2)Oc2ccc(cc2Cl)[C@H]1O [VA, vancomycin]
[10]; code 3294
  Minimal Inhibitory Concentration: >128 mg/L
[13]; [36]
  Minimal Inhibitory Concentration, range: 0.25 to 0.5 mg/L
[18]; code 3607, anaerobic, 48 hours
  Minimal Inhibitory Concentration: 1 mg/L
[15]
  Minimal Inhibitory Concentration, range: 1 mg/L
[19]
  MIC: 0.5 µg/mL (≈ 0.345 µM)
[20]; read-out: Minimal Inhibitory Concentration, code 100, +30% bovine serum
  MIC: 1 µg/mL (≈ 0.69 µM)
[20]; read-out: Minimal Inhibitory Concentration, code 100, CAMHB
  MIC: 0.25 µg/mL (≈ 0.173 µM)
[21]; ATCC19636, read-out: Minimal Inhibitory Concentration, code 819, +30% bovine serum
  MIC: 1 µg/mL (≈ 0.69 µM)
[21]; ATCC19636, read-out: Minimal Inhibitory Concentration, code 819, CAMHB
  MIC: 0.5 µg/mL (≈ 0.345 µM)
[22]
  MIC: 0.5 µg/mL (≈ 0.345 µM)
[23]
  MIC: 0.25 µg/mL (≈ 0.173 µM)
[24]
  MIC: 0.5 µg/mL (≈ 0.345 µM)
[25]; read-out: Minimal Inhibitory Concentration, code 568
  MIC: 2 µg/mL (≈ 1.38 µM)
[25]; read-out: Minimal Inhibitory Concentration, code 568, +30% bovine serum
  MIC: 4 µg/mL (≈ 2.76 µM)
[26]
  MIC: > 128 µg/mL
[27]; read-out: Minimal Inhibitory Concentration, code 559
  MIC: 1 µg/mL (≈ 0.69 µM)
[27]; read-out: Minimal Inhibitory Concentration, code 559, +30% bovine serum
  MIC: 2 µg/mL (≈ 1.38 µM)
[28]
  MIC: > 128 µg/mL
[29]
  MIC: > 128 µg/mL
[30]
  MIC: > 128 µg/mL
[31]
  MIC: > 128 µg/mL
[32]; read-out: Minimal Inhibitory Concentration, code 1365, anaerobic
  MIC: 0.5 µg/mL (≈ 0.345 µM)
[32]; read-out: Minimal Inhibitory Concentration, code 4013, anaerobic
  MIC: 0.25 µg/mL (≈ 0.173 µM)
[32]; read-out: Minimal Inhibitory Concentration, code 4015, anaerobic
  MIC: 0.25 µg/mL (≈ 0.173 µM)
[33]
  MIC: 1 µg/mL (≈ 0.69 µM)
[34]
  MIC: 1 µg/mL (≈ 0.69 µM)
[35]
  MIC: 32 µg/mL (≈ 22.1 µM)

Source: patent publication US20140094402A1, “Lantibiotic NAI-802, Pharmaceutically Acceptable Salts, Compositions and Uses Thereof” ([…] PHARMACEUTICALS, INC., priority 2011, published 2014)
